The source of these data is publication PMC9028219 (Frontiers in Nutrition, 2022).

The assay relates to Sarcoma-180 (S-180) tumor. The settings on record: 20 mg/kg bw i.p. Here is the method:
The S-180 cells were collected from Swiss albino mice harboring 8–10 days old cells from the peritoneal cavity. On day 0, the S-180 cells (1 × 10^7 cells/ml) were injected intra-peritoneal in non-inbred female Swiss albino mice (22–25 g, 8–10 weeks old) selected for the experiment. The next day (Day 1), the animals were randomized and divided into three treatment groups, one positive control group and one vehicle control group containing 5 animals in each group. […] The fourth group was given 5-fluorouracil; positive control at a dose of 20 mg/kg bw i.p. from day 1–9, and the fifth group (control) was administered normal saline (0.2 ml i.p.) for 9 days. On day 12, the animals were sacrificed, and the fluid was collected from each mouse's peritoneal cavity to evaluate tumor growth ([43]). The tumor growth inhibition was calculated using the following formula.
Tumor Growth Inhibition(%)=(Number of tumor cells in control group-Number of tumor cells in the test group)/Number of tumor cells in the control group×100

Setting [1] is: days 1-9, evaluated day 12, n = 5.

As to `O=c1[nH]cc(F)c(=O)[nH]1` [5 FU, 5-fluorouracil, reference compound], the Tumor growth inhibition (days 1-9, evaluated day 12) was 93.75%. Further, under setting [1], the “Tumor cell count Mean ± S.E” value is on record as 5 ± 0.28^*** 1 × 10^7, the “Tumor volume Mean ± S.E” value came out at 0.16 ± 0.01 mL and the “Tumor weight Mean ± S.E” value was found to be 0.16 ± 0.01 g.
